What follows are molecules tested against hCereblon(M1-L442)_hDDB1(M1-H1140) (Homo sapiens (Human), UniProt Q96SW2) (assay: Fluorescence direct binding protocol (tryptophan fluorescence titration)). Details: 20° C., excited at 280 nm, recorded at 340 nm, assay buffer 50 mM Hepes 7.4 200 mM NaCl; read-out: Fluorescence h-Cereblon_DDB1 Mean Kd_EQ.
Description: Fluorescence Direct Binding Protocol
Determination of the affinities of compounds to protein containing one or more tryptophan is measurable by monitoring the fluorescence emission in direct mode. The measurements depending on the protein available amounts are performed either manually in a cuvette on ISS-PC1 photon counting spectrofluorometer or automatically in well plates on a fluorescence plate reader device. Fluorescence titrations are performed at 20° C. in the chosen binding assay buffer by using a defined constant protein concentration against ligand concentration variations. Small aliquots of known ligand concentration solubilized in DMSO were added and the fluorescence, excited at 280 nm, was recorded at 340 nm. The fluorescence intensity was corrected for protein dilution and for the filter effect (Birdsall et al.^72).
1) Optimization of measurement parameters to minimize protein consumption and to minimize the dilution effect and the DMSO content
2) Titration measurements of the protein against ligand by at least 12 titration steps to obtain a good s-curve fit
3) Repeat the same titration measurements with the ligand alone to enable correction
4) Check the stability of the protein once by titration against DMSO alone
5) Determination of the molar extinction coefficients of the ligand at 280 and 340 nm with help of an UV-spectrophotometer
6) Use Excel template for the correction of the measured raw data
7) Use GraphPad Prism software for the quadratic binding fit and the KD evaluation.

Chain of hCereblon(M1-L442)_hDDB1(M1-H1140) (Q96SW2 whole entry): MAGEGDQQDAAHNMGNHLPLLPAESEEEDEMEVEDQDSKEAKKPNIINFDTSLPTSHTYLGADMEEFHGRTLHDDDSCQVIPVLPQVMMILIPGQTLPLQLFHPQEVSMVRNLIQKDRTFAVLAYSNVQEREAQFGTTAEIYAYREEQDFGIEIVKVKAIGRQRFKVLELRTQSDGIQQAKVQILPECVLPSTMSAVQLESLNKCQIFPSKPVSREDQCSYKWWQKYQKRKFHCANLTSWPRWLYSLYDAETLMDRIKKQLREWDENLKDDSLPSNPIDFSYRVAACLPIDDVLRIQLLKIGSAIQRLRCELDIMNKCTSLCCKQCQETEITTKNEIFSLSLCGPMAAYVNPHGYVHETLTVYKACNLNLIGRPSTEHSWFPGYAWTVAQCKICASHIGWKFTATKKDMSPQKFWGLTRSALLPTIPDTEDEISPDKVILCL
Chain of hCereblon(M1-L442)_hDDB1(M1-H1140) (Q16531 whole entry partner): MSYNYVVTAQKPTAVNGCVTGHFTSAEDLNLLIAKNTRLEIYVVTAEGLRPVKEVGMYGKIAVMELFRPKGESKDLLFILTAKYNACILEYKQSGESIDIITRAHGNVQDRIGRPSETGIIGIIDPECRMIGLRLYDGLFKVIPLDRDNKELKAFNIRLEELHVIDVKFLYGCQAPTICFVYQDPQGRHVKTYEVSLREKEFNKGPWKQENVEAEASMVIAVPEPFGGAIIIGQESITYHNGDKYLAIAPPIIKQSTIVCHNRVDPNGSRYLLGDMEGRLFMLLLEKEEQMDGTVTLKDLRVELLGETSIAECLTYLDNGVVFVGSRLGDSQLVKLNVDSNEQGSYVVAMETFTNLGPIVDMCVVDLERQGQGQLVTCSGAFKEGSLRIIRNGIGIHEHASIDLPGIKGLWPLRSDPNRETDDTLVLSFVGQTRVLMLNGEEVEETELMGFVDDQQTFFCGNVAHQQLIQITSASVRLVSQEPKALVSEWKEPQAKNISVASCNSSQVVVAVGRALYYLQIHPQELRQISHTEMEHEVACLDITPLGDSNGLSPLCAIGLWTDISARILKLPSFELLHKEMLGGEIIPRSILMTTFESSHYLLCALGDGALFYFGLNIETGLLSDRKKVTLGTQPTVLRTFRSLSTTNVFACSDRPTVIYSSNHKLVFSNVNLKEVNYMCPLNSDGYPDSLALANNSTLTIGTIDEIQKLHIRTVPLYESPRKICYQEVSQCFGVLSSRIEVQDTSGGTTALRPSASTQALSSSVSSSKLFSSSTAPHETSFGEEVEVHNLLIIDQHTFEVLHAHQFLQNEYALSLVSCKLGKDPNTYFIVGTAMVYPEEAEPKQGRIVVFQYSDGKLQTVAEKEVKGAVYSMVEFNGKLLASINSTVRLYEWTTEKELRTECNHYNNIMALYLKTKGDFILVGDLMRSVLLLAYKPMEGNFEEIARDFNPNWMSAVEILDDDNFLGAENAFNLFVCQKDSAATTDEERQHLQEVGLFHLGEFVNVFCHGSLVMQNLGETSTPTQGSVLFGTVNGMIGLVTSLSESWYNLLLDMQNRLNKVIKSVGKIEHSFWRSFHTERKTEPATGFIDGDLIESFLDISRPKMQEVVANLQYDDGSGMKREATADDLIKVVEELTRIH

First: O=C1CC[C@@H](NC(=O)C2CCc3cccnc32)C(=O)N1 (mixture of isomers) [Example 22]
Second: O=C1CC[C@H](NC(=O)C2CCc3cccnc32)C(=O)N1 (stereo partly drawn) [Example 23, N-((S)-2,6-Dioxopiperidin-3-yl)-6,7-dihydro-5H-cyclopenta[b]pyridine-7-carboxamide]
The Kd of the first is lower: < 1 nM for the first, 25 nM for the second. The first binds more tightly here.

First: O=C1CCC(NC(=O)C2CCc3ccccc32)C(=O)N1 (racemic) [Example 2, N-(2,6-Dioxopiperidin-3-yl)-2,3-dihydro-1H-indene-1-carboxamide]
Second: O=C1CCC(NC(=O)[C@@H]2CCCc3ccccc32)C(=O)N1 (stereo partly drawn) [Example 14, (1R)-N-(2,6-Dioxopiperidin-3-yl)-1,2,3,4-tetrahydronaphthalene-1-carboxamide]
The Kd of the first is 160-fold higher: 655 nM for the first, 4 nM for the second.

Going from `CN1C(=O)CCC(NC(=O)[C@H]2CCCc3ccccc32)C1=O` (single isomer, unassigned) [Example 74] to `O=C1CCC(NC(=O)[C@H]2CCCc3ccccc32)C(=O)N1` (stereo partly drawn) [Example 15, (1S)-N-(2,6-Dioxopiperidin-3-yl)-1,2,3,4-tetrahydronaphthalene-1-carboxamide], the Kd falls from 5 nM to < 1 nM. The second binds more tightly here.

Going from `CN1C(=O)CCC(NC(=O)[C@H]2CCCc3ccccc32)C1=O` (single isomer, unassigned) [Example 75] to `O=C1CC[C@@H](NC(=O)[C@H]2CCCc3ccccc32)C(=O)N1` [Example 26, (S)-N-((R)-2,6-Dioxopiperidin-3-yl)-1,2,3,4-tetrahydronaphthalene-1-carboxamide], the Kd falls from 46 nM to 6 nM (7.7-fold).

First: O=C1CCC(NC(=O)C2CCc3ccccc32)C(=O)N1 (single isomer, unassigned; (+)) [Example 5, (+)-N-(2,6-Dioxopiperidin-3-yl)-2,3-dihydro-1H-indene-1-carboxamide]
Second: O=C1CC[C@H](NC(=O)[C@H]2CCCc3ccccc32)C(=O)N1 [Example 27, (S)-N-((S)-2,6-Dioxopiperidin-3-yl)-1,2,3,4-tetrahydronaphthalene-1-carboxamide]
The Kd of the first is 66-fold higher: 197 nM for the first, 3 nM for the second. The second binds more tightly here.

First: O=C1CCC(NC(=O)C2CCc3ccccc32)C(=O)N1 (single isomer, unassigned; (-)) [Example 4, (−)-N-(2,6-Dioxopiperidin-3-yl)-2,3-dihydro-1H-indene-1-carboxamide]
Second: O=C1CC[C@H](NC(=O)C2CCOc3ccccc32)C(=O)N1 (stereo partly drawn) [Example 31, N-[(3S)-2,6-Dioxo-3-piperidyl]chromane-4-carboxamide]
The Kd of the first is 14-fold higher: 68 nM for the first, 5 nM for the second. The second binds more tightly here.

`O=C1CC[C@H](NC(=O)Cc2ccccc2)C(=O)N1` [Example 1, (S)-N-(2,6-Dioxo-3-piperidinyl)benzeneacetamide] and `O=C1CCC(NC(=O)c2c[nH]c3ccccc23)C(=O)N1` (stereo not drawn) [Example 7, N-(2,6-Dioxopiperidin-3-yl)-1H-indole-3-carboxamide] are within 1.5-fold of each other in Kd: 27 nM for the first, 28 nM for the second.

Compared with `CCCN1Cc2ccccc2C1C(=O)NC1CCC(=O)NC1=O` (stereo not drawn) [Example 3, N-(2,6-Dioxopiperidin-3-yl)-2-propylisoindoline-1-carboxamide], `O=C1CCC(NC(=O)C2CCc3ccccc32)C(=O)N1` (stereo not drawn) [Example 6, N-(2,6-Dioxopiperidin-3-yl)-2,3-dihydro-1H-indene-1-carboxamide] is 2.6-fold higher in Kd: 57 nM for the first, 146 nM for the second.

Going from `Cn1cc(C(=O)NC2CCC(=O)NC2=O)c2ccccc21` (stereo not drawn) [Example 8, N-(2,6-Dioxopiperidin-3-yl)-1-methyl-1H-indole-3-carboxamide] to `O=C1CCC(NC(=O)c2coc3ccccc23)C(=O)N1` (stereo not drawn) [Example 12, N-(2,6-Dioxopiperidin-3-yl)benzofuran-3-carboxamide], the Kd falls from 30 nM to 2 nM (15-fold).

Going from `O=C1CCC(NC(=O)N2CCc3ccccc32)C(=O)N1` (stereo not drawn) [Example 9, N-(2,6-Dioxopiperidin-3-yl)indoline-1-carboxamide] to `O=C1CC[C@H](NC(=O)N2CCCc3ccccc32)C(=O)N1` [Example 28, (S)-N-(2,6-Dioxopiperidin-3-yl)-3,4-dihydroquinoline-1(2H)-carboxamide], the Kd rises from 2 nM to 4 nM (2-fold). The first binds more tightly here.

Compared with `O=C1CCC(NC(=O)C2CCCC2)C(=O)N1` (stereo not drawn) [Example 11, N-(2,6-Dioxopiperidin-3-yl)cyclopentanecarboxamide], `O=C1CC[C@H](NC(=O)C2CCc3ncccc32)C(=O)N1` (stereo partly drawn) [Example 19, N-((S)-2,6-Dioxopiperidin-3-yl)-6,7-dihydro-5H-cyclopenta[b]pyridine-5-carboxamide] is 12-fold lower in Kd: 12 nM for the first, 1 nM for the second. The second binds more tightly here.

`O=C1CCC(NC(=O)c2csc3ccccc23)C(=O)N1` (stereo not drawn) [Example 13, N-(2,6-Dioxopiperidin-3-yl)benzo[b]thiophene-3-carboxamide] and `O=C1CC[C@@H](NC(=O)c2csc3ccccc23)C(=O)N1` [Example 24, (R)-N-(2,6-Dioxopiperidin-3-yl)benzo[b]thiophene-3-carboxamide] are within 1.5-fold of each other in Kd: 8 nM for the first, 9 nM for the second.

Going from `CN(C(=O)c1c[nH]c2ccccc12)C1CCC(=O)NC1=O` (stereo not drawn) [Example 16, N-(2,6-Dioxopiperidin-3-yl)-N-methyl-1H-indole-3-carboxamide] to `O=C1CC[C@H](NC(=O)c2c[nH]c3ccccc23)C(=O)N1` [Example 17, (S)-N-(2,6-Dioxopiperidin-3-yl)-1H-indole-3-carboxamide], the Kd rises from 3 nM to 14 nM (4.7-fold).

Compared with `O=C1CC[C@@H](NC(=O)c2c[nH]c3ccccc23)C(=O)N1` [Example 18, (R)-N-(2,6-Dioxopiperidin-3-yl)-1H-indole-3-carboxamide], `O=C1CC[C@H](NC(=O)c2coc3ccccc23)C(=O)N1` [Example 21, (S)-N-(2,6-Dioxopiperidin-3-yl)benzofuran-3-carboxamide] is 14-fold lower in Kd: 14 nM for the first, 1 nM for the second.

First: O=C1CC[C@@H](NC(=O)C2CCc3ncccc32)C(=O)N1 (stereo partly drawn) [Example 20, N-((R)-2,6-Dioxopiperidin-3-yl)-6,7-dihydro-5H-cyclopenta[b]pyridine-5-carboxamide]
Second: O=C1CC[C@H](NC(=O)[C@H]2CCNc3ccccc32)C(=O)N1 [Example 32, (4S)-N-[(3S)-2,6-Dioxopiperidin-3-yl]-1,2,3,4-tetrahydroquinoline-4-carboxamide]
The Kd of the first is higher: 3 nM for the first, < 1 nM for the second.

`O=C1CC[C@H](NC(=O)c2csc3ccccc23)C(=O)N1` [Example 25, (S)-N-(2,6-Dioxopiperidin-3-yl)benzo[b]thiophene-3-carboxamide] and `O=C1CC[C@@H](NC(=O)c2coc3ccccc23)C(=O)N1` [Example 34, (R)-N-(2,6-Dioxopiperidin-3-yl)benzofuran-3-carboxamide] are within 1.5-fold of each other in Kd: 23 nM for the first, 26 nM for the second.

Going from `O=C1CC[C@H](NC(=O)N2CCc3cccnc32)C(=O)N1` [Example 29, (S)-N-(2,6-Dioxopiperidin-3-yl)-2,3-dihydro-1H-pyrrolo[2,3-b]pyridine-1-carboxamide] to `O=C1CC[C@@H](NC(=O)N2CCc3cccnc32)C(=O)N1` [Example 36, (R)-N-(2,6-Dioxopiperidin-3-yl)-2,3-dihydro-1H-pyrrolo[2,3-b]pyridine-1-carboxamide], the Kd rises from < 1 nM to 10 nM. The first binds more tightly here.

Going from `O=C1CC[C@H](NC(=O)N2CCCc3cccnc32)C(=O)N1` [Example 30, (S)-N-(2,6-Dioxopiperidin-3-yl)-3,4-dihydro-1,8-naphthyridine-1 (2H)-carboxamide] to `O=C1CC[C@@H](NC(=O)N2CCCc3ccccc32)C(=O)N1` [Example 35, (R)-N-(2,6-Dioxopiperidin-3-yl)-3,4-dihydroquinoline-1(2H)-carboxamide], the Kd rises from 4 nM to 19 nM (4.8-fold).

First: O=C1CC[C@H](NC(=O)[C@@H]2CCNc3ccccc32)C(=O)N1 [Example 33, (4R)-N-[(3S)-2,6-Dioxopiperidin-3-yl]-1,2,3,4-tetrahydroquinoline-4-carboxamide]
Second: O=C1CC[C@H](NC(=O)C2CCNc3ccccc32)C(=O)N1 (stereo partly drawn) [Example 37, N-[(3S)-2,6-Dioxo-3-piperidyl]-1,2,3,4-tetrahydroquinoline-4-carboxamide]
The Kd of the first is higher: 6 nM for the first, < 1 nM for the second. The second binds more tightly here.

Going from `CN1CCC(C(=O)N[C@H]2CCC(=O)NC2=O)c2ccccc21` (stereo partly drawn) [Example 38, N-[(3S)-2,6-Dioxo-3-piperidyl]-1-methyl-3,4-dihydro-2H-quinoline-4-carboxamide] to `CN1CCC(C(=O)N[C@@H]2CCC(=O)NC2=O)c2ccccc21` (stereo partly drawn) [Example 40, N-[(3R)-2,6-Dioxo-3-piperidyl]-1-methyl-3,4-dihydro-2H-quinoline-4-carboxamide], the Kd rises from 5 nM to 68 nM (14-fold).

Going from `O=C1CC[C@@H](NC(=O)C2CCNc3ccccc32)C(=O)N1` (stereo partly drawn) [Example 39, N-[(3R)-2,6-Dioxo-3-piperidyl]-1,2,3,4-tetrahydroquinoline-4-carboxamide] to `O=C1CC[C@@H](NC(=O)[C@H]2CCNc3ccccc32)C(=O)N1` [Example 43, (4S)-N-[(3R)-2,6-Dioxopiperidin-3-yl]-1,2,3,4-tetrahydroquinoline-4-carboxamide], the Kd falls from 19 nM to < 1 nM.

`O=C1CC[C@@H](NC(=O)C2CCOc3ccccc32)C(=O)N1` (stereo partly drawn) [Example 41, N-[(3R)-2,6-Dioxo-3-piperidyl]chromane-4-carboxamide] and `O=C1CC[C@@H](NC(=O)[C@@H]2CCNc3ccccc32)C(=O)N1` [Example 44, (4R)-N-[(3R)-2,6-Dioxopiperidin-3-yl]-1,2,3,4-tetrahydroquinoline-4-carboxamide] are within 1.5-fold of each other in Kd: 14 nM for the first, 12 nM for the second.

With `COC(=O)c1ccc2c(C(=O)N[C@H]3CCC(=O)NC3=O)c[nH]c2c1` [Example 42, Methyl (S)-3-((2,6-dioxopiperidin-3-yl)carbamoyl)-1H-indole-6-carboxylate] the Kd was 18 nM.
